Measured values as given in patent US5472949A, “N^4 -(substituted-oxycarbonyl)-5'-deoxy-5-fluorocytidine compounds, compositions and methods of using same” (Hoffmann-La Roche Inc., priority 1992, dated 1995).
Like-named read-outs stand apart in the source and are kept apart here. Blank lines part the entries; values can stand above or below the compound they belong to.

Tests used:
[1] = Pharmacokinetic profiles in monkeys (plasma 5'-DFUR after oral administration); type: in vivo; conditions: cynomolgous monkeys, metabolite 5'-DFUR in plasma
Procedure: The compounds of formula (I) were orally administered into groups of 2 to 5 cynomolgous monkeys (3-4 kg). At various times after the administration, plasma was taken for determination of blood concentrations of intact molecules and their active metabolite 5'-DFUR. Metabolites in the plasma were separated by HPLC and their concentrations were calculated.

human liver acylamidase = assay: Susceptibility to human liver acylamidase (crude liver extract, 5'-DFCR formed by HPLC); type: in vitro ADME; conditions: tetrahydrouridine 0.4 mM, 37° C., 60 min
Procedure: (§1) The N^4 -(substituted-oxycarbonyl)-5'-DFCRs of the invention were incubated with crude extracts of monkey and human liver in the presence of an inhibitor of cytidine deaminase, tetrahydrouridine (0.4 mM) at 37° C. for 60 min. Thereafter, the product 5'-DFCR was separated by HPLC and the enzyme susceptibility was calculated from the amount of the product.

monkey liver acylamidase = assay: Susceptibility to monkey liver acylamidase (crude liver extract, 5'-DFCR formed by HPLC); type: in vitro ADME; conditions: tetrahydrouridine 0.4 mM, 37° C., 60 min
Procedure: as §1

[2] = tested on: CXF280 Human Colon Carcinoma; assay: Antitumor testing against human colon cancer xenograft CXF280; type: in vivo, BALB/c nu/nu mice; parameters: key to Fecal observation: N: normal feces; L: loose passage; key to % Growth inhibition: NE: Not Effective; conditions: for inhibition in vivo at 1 mmol/kg/day: Exp. 1, 1.0 mmol/kg/day x 21, oral
Procedure: CXF280 tumor (about 2×2 mm piece) was implanted subcutaneously into BALB/c nu/nu mice (21-22 g) on day 0. When tumor volume became 100 mm^3 on day around 14, the compounds of the invention were orally administered daily for 3 weeks. At one day after the last treatment, tumor volume was calculated.
The percent inhibition of tumor growth given in Table 3 above was calculated from the formula:
% Inhibition ={1-(T-V0)/(C-V0)}×100
V0 =volume of tumor before treatment was started, T=volume of the tumors from the treated group, C=volume of the tumor from the control group.

[3] = Toxicity (LD50), oral administration daily for 21 days in mice; conditions: mouse, in vivo
Procedure: The toxicity (LD50) of the representative compounds (Example 13,14, and 17) of the present invention was examined by oral administration daily for 21 days in mice. The representative LD50 values obtained from the experiments were more than 500 mg/kg/day.

[4] = Exp. 2, 2.25 mmol/kg/day x 21, oral
[5] = Mus musculus, po, Exp. 2, 0.13 mmol/kg/day x 21, oral, read-out: % Growth inhibition
[6] = Mus musculus, po, Exp. 2, 0.3 mmol/kg/day x 21, oral, read-out: % Growth inhibition
[7] = Mus musculus, po, Exp. 2, 0.67 mmol/kg/day x 21, oral, read-out: % Growth inhibition
[8] = Mus musculus, po, Exp. 2, 1.5 mmol/kg/day x 21, oral, read-out: % Growth inhibition
[9] = Mus musculus, po, Exp. 2, 2.25 mmol/kg/day x 21, oral, read-out: % Growth inhibition
[10] = Exp. 2, 0.089 mmol/kg/day x 21, oral
[11] = Mus musculus, po, Exp. 1, 0.13 mmol/kg/day x 21, oral, read-out: % Growth inhibition
[12] = Exp. 2, 1.5 mmol/kg/day x 21, oral
[13] = Exp. 1, 1.5 mmol/kg/day x 21, oral
[14] = Mus musculus, po, Exp. 1, 0.3 mmol/kg/day x 21, oral, read-out: % Growth inhibition
[15] = Mus musculus, po, Exp. 1, 0.67 mmol/kg/day x 21, oral, read-out: % Growth inhibition
[16] = Mus musculus, po, read-out: % Growth inhibition
[17] = Mus musculus, po, Exp. 1, 1.5 mmol/kg/day x 21, oral, read-out: % Growth inhibition

- Plasma 5'-DFUR AUC [1]: 2520 ng·h/mL
- Acylamidase activity, Human Liver (human liver acylamidase): 210 nmol/mg protein/hr
- Acylamidase activity, Monkey Liver (monkey liver acylamidase): 33 nmol/mg protein/hr
SMILES: C[C@H]1O[C@@H](n2cc(F)c(NC(=O)OCC3CCCCC3)nc2=O)[C@H](O)[C@@H]1O [Example 16, N^4-[(cyclohexylmethoxy)carbonyl]-5'-deoxy-5-fluorocytidine]

SMILES: CCCCOC(=O)Nc1nc(=O)n([C@@H]2O[C@H](C)[C@@H](O)[C@H]2O)cc1F [Example 11, N^4-(butoxycarbonyl)-5'-deoxy-5-fluorocytidine]
- Plasma 5'-DFUR AUC [1]: 2060 ng·h/mL
- Acylamidase activity, Human Liver (human liver acylamidase): 71 nmol/mg protein/hr
- Acylamidase activity, Monkey Liver (monkey liver acylamidase): 20 nmol/mg protein/hr
- Fecal observation [2, 4]: N
- inhibition in vivo at 0.13 mmol/kg/day [2, 5]: 46%
- inhibition in vivo at 0.3 mmol/kg/day [2, 6]: 72%
- inhibition in vivo at 0.67 mmol/kg/day [2, 7]: 84%
- inhibition in vivo at 1.5 mmol/kg/day [2, 8]: 95%
- inhibition in vivo at 2.25 mmol/kg/day [2, 9]: 100%

- Plasma 5'-DFUR AUC [1]: 2030 ng·h/mL
SMILES: CCCOC(=O)Nc1nc(=O)n([C@@H]2O[C@H](C)[C@@H](O)[C@H]2O)cc1F [Example 10, 5'-deoxy-5-fluoro-N^4-(propoxycarbonyl)cytidine]
- Fecal observation [2, 4]: N
- inhibition in vivo at 0.13 mmol/kg/day [2, 5]: 39%
- inhibition in vivo at 0.3 mmol/kg/day [2, 6]: 56%
- inhibition in vivo at 0.67 mmol/kg/day [2, 7]: 75%
- inhibition in vivo at 1.5 mmol/kg/day [2, 8]: 86%
- inhibition in vivo at 2.25 mmol/kg/day [2, 9]: 93%

SMILES: C[C@H]1O[C@@H](n2cc(F)c(NC(=O)OCCC(C)(C)C)nc2=O)[C@H](O)[C@@H]1O [Example 29, 5'-Deoxy-N^4-[(3,3-dimethylbutoxy)carbonyl]-5-fluorocytidine]
- Plasma 5'-DFUR AUC [1]: 2090 ng·h/mL
- Acylamidase activity, Human Liver (human liver acylamidase): 50 nmol/mg protein/hr
- Acylamidase activity, Monkey Liver (monkey liver acylamidase): 22 nmol/mg protein/hr

- Plasma 5'-DFUR AUC [1]: 1400 ng·h/mL
- Acylamidase activity, Human Liver (human liver acylamidase): 52 nmol/mg protein/hr
- Acylamidase activity, Monkey Liver (monkey liver acylamidase): 25 nmol/mg protein/hr
SMILES: C[C@H]1O[C@@H](n2cc(F)c(NC(=O)OCC(C)(C)C)nc2=O)[C@H](O)[C@@H]1O [Example 28, 5'-deoxy-5-fluoro-N^4-(neopentyloxycarbonyl)cytidine]

- Acylamidase activity, Human Liver (human liver acylamidase): 320 nmol/mg protein/hr
- Acylamidase activity, Monkey Liver (monkey liver acylamidase): 19 nmol/mg protein/hr
SMILES: C[C@H]1O[C@@H](n2cc(F)c(NC(=O)OCCC3CCCCC3)nc2=O)[C@H](O)[C@@H]1O [Example 20, N^4-[(2-cyclohexylethoxy)carbonyl]-5'-deoxy-5-fluorocytidine]

- Acylamidase activity, Human Liver (human liver acylamidase): 160 nmol/mg protein/hr
- Acylamidase activity, Monkey Liver (monkey liver acylamidase): < 13 nmol/mg protein/hr
SMILES: CCCC(CCC)COC(=O)Nc1nc(=O)n([C@@H]2O[C@H](C)[C@@H](O)[C@H]2O)cc1F [Example 25, 5'-deoxy-5-fluoro-N^4-[(2-propylpentyl)oxycarbonyl]cytidine]

SMILES: O=c1[nH]cc(F)c(=O)[nH]1 [Example 5-FU, 5-fluorouracil, reference compound]
- Fecal observation ([2]; Exp. 1, 0.089 mmol/kg/day x 21, oral): N
- Fecal observation ([2]; Exp. 1, 0.13 mmol/kg/day x 21, oral): N
- Fecal observation ([2]; Exp. 1, 0.2 mmol/kg/day x 21, oral): L
- % Growth inhibition [2, 10]: NE
- Fecal observation [2, 10]: N
- Fecal observation ([2]; Exp. 2, 0.13 mmol/kg/day x 21, oral): N
- Fecal observation ([2]; Exp. 2, 0.2 mmol/kg/day x 21, oral): L
- inhibition in vivo at 0.089 mmol/kg/day ([2]; Mus musculus, po, Exp. 1, 0.089 mmol/kg/day x 21, oral, read-out: % Growth inhibition): 28%
- inhibition in vivo at 0.13 mmol/kg/day [2, 11]: 59%
- inhibition in vivo at 0.2 mmol/kg/day ([2]; Mus musculus, po, Exp. 1, 0.2 mmol/kg/day x 21, oral, read-out: % Growth inhibition): 79%
- inhibition in vivo at 0.13 mmol/kg/day [2, 5]: 20%
- inhibition in vivo at 0.2 mmol/kg/day ([2]; Mus musculus, po, Exp. 2, 0.2 mmol/kg/day x 21, oral, read-out: % Growth inhibition): 58%

- Acylamidase activity, Human Liver (human liver acylamidase): 110 nmol/mg protein/hr
- Acylamidase activity, Monkey Liver (monkey liver acylamidase): 59 nmol/mg protein/hr
SMILES: CCCCCCCOC(=O)Nc1nc(=O)n([C@@H]2O[C@H](C)[C@@H](O)[C@H]2O)cc1F [Example 27, 5'-deoxy-5-fluoro-N^4-(heptyloxycarbonyl)cytidine]
- Fecal observation [2, 12]: N
- Fecal observation [2, 4]: N
- inhibition in vivo at 0.13 mmol/kg/day [2, 5]: 26%
- inhibition in vivo at 0.3 mmol/kg/day [2, 6]: 72%
- inhibition in vivo at 0.67 mmol/kg/day [2, 7]: 84%
- inhibition in vivo at 1.5 mmol/kg/day [2, 8]: 94%
- inhibition in vivo at 2.25 mmol/kg/day [2, 9]: 103%

- Plasma 5'-DFUR AUC [1]: 2900 ng·h/mL
- Acylamidase activity, Human Liver (human liver acylamidase): 190 nmol/mg protein/hr
- Acylamidase activity, Monkey Liver (monkey liver acylamidase): 29 nmol/mg protein/hr
SMILES: CCCCCOC(=O)Nc1nc(=O)n([C@@H]2O[C@H](C)[C@@H](O)[C@H]2O)cc1F [Example 12, 5'-deoxy-5-fluoro-N^4-(pentyloxycarbonyl)cytidine]
- Fecal observation [2, 13]: N
- inhibition in vivo at 0.13 mmol/kg/day [2, 11]: 68%
- inhibition in vivo at 0.3 mmol/kg/day [2, 14]: 69%
- inhibition in vivo at 0.67 mmol/kg/day [2, 15]: 86%
- inhibition in vivo at 1 mmol/kg/day [2, 16]: 86%
- inhibition in vivo at 1.5 mmol/kg/day [2, 17]: 96%

- Acylamidase activity, Human Liver (human liver acylamidase): 82 nmol/mg protein/hr
- Acylamidase activity, Monkey Liver (monkey liver acylamidase): 26 nmol/mg protein/hr
SMILES: C[C@H]1O[C@@H](n2cc(F)c(NC(=O)OCCCC3CCCCC3)nc2=O)[C@H](O)[C@@H]1O [Example 21, N^4-[(3-cyclohexylpropyl)oxycarbonyl]-5'-deoxy-5-fluorocytidine]

SMILES: CC(C)CCOC(=O)Nc1nc(=O)n([C@@H]2O[C@H](C)[C@@H](O)[C@H]2O)cc1F [Example 14, 5'-deoxy-5-fluoro-N^4-(isopentyloxycarbonyl)cytidine]
- Plasma 5'-DFUR AUC [1]: 2400 ng·h/mL
- Acylamidase activity, Human Liver (human liver acylamidase): 74 nmol/mg protein/hr
- Acylamidase activity, Monkey Liver (monkey liver acylamidase): 32 nmol/mg protein/hr
- LD50 at 504 h [3]: > 500 mg/kg
- Fecal observation [2, 12]: N
- Fecal observation [2, 4]: N
- inhibition in vivo at 0.13 mmol/kg/day [2, 5]: 68%
- inhibition in vivo at 0.3 mmol/kg/day [2, 6]: 68%
- inhibition in vivo at 0.67 mmol/kg/day [2, 7]: 85%
- inhibition in vivo at 1.5 mmol/kg/day [2, 8]: 94%
- inhibition in vivo at 2.25 mmol/kg/day [2, 9]: 100%

SMILES: CCC(CC)COC(=O)Nc1nc(=O)n([C@@H]2O[C@H](C)[C@@H](O)[C@H]2O)cc1F [Example 15, 5'-deoxy-N^4-[(2-ethylbutoxy)carbonyl]-5-fluorocytidine]
- Plasma 5'-DFUR AUC [1]: 2890 ng·h/mL
- Acylamidase activity, Human Liver (human liver acylamidase): 210 nmol/mg protein/hr
- Acylamidase activity, Monkey Liver (monkey liver acylamidase): 23 nmol/mg protein/hr

- Acylamidase activity, Human Liver (human liver acylamidase): 560 nmol/mg protein/hr
- Acylamidase activity, Monkey Liver (monkey liver acylamidase): 20 nmol/mg protein/hr
SMILES: CCCCC(CC)COC(=O)Nc1nc(=O)n([C@@H]2O[C@H](C)[C@@H](O)[C@H]2O)cc1F (stereo partly shown) [Example 26, 5'-deoxy-N^4-[(2-ethylhexyl)oxycarbonyl]-5-fluorocytidine]

- Acylamidase activity, Human Liver (human liver acylamidase): 110 nmol/mg protein/hr
- Acylamidase activity, Monkey Liver (monkey liver acylamidase): 43 nmol/mg protein/hr
SMILES: C[C@H]1O[C@@H](n2cc(F)c(NC(=O)OCCCc3ccccc3)nc2=O)[C@H](O)[C@@H]1O [Example 22, 5'-deoxy-5-fluoro-N^4-[(3-phenylpropyl)oxycarbonyl]cytidine]

SMILES: CC(C)COC(=O)Nc1nc(=O)n([C@@H]2O[C@H](C)[C@@H](O)[C@H]2O)cc1F [Example 24, 5'-deoxy-5-fluoro-N^4-(isobutoxycarbonyl)cytidine]
- Acylamidase activity, Human Liver (human liver acylamidase): 64 nmol/mg protein/hr
- Acylamidase activity, Monkey Liver (monkey liver acylamidase): 18 nmol/mg protein/hr
- Fecal observation [2, 13]: N
- inhibition in vivo at 0.13 mmol/kg/day [2, 11]: 37%
- inhibition in vivo at 0.3 mmol/kg/day [2, 14]: 64%
- inhibition in vivo at 0.67 mmol/kg/day [2, 15]: 75%
- inhibition in vivo at 1 mmol/kg/day [2, 16]: 83%
- inhibition in vivo at 1.5 mmol/kg/day [2, 17]: 89%

SMILES: C[C@H]1O[C@@H](n2cc(F)c(NC(=O)OCCc3ccccc3)nc2=O)[C@H](O)[C@@H]1O [Example 17, 5'-deoxy-5-fluoro-N^4-[(2-phenylethoxy)carbonyl]cytidine]
- Plasma 5'-DFUR AUC [1]: 2660 ng·h/mL
- Acylamidase activity, Human Liver (human liver acylamidase): 160 nmol/mg protein/hr
- Acylamidase activity, Monkey Liver (monkey liver acylamidase): 22 nmol/mg protein/hr
- LD50 at 504 h [3]: > 500 mg/kg
